Earlier results in patent US20070148205A1, “Prevention of Arterial Restenosis with Active Vitamin D Compounds” (priority 2004, published 2007).

Settings: in vivo

C=C1/C(=C\C=C2/CCC[C@]3(C)C([C@H](C)CC#CC(C)(C)O)=CC[C@@H]23)C[C@@H](O)C[C@@H]1O [Ro23-7553]
Hypercalcemic effect compared to calcitriol, in words: reduced hypercalcemic effect
